Results taken from article PMC4096218 (Journal of Medicinal Chemistry, 2014).
Converted amounts (≈) assume the structure as drawn.

Legend:
EcUPPS = biological target: T1, EcUPPS (Escherichia coli, UniProt P60472); conditions: inhibitor in EcUPPS X-ray structure 2E98; cited from earlier work
T1 sequence (P60472 1-253): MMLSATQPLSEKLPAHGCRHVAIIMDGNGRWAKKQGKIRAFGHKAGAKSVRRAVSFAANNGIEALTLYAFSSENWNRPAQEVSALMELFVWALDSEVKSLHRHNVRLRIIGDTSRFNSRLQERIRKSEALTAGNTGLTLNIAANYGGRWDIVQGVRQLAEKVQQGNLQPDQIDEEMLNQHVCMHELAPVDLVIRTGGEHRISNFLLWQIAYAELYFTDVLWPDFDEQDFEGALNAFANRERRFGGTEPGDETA

[1] = system: Bacillus anthracis strain Sterne; assay: microbe, parasite or virus in culture; format: cell-based
[2] = system: panel of both Gram-positive and Gram-negative bacteria; format: cell-based; conditions: for MIC values (range in words): B. anthracis Sterne, MRSA, VRE, L. monocytogenes

Structure (SMILES) | IC50 (EcUPPS) [µM] | MIC [1] [µg/mL] | MIC values (range in words) [2] | growth of Gram negatives [2] | growth of Gram positives [2]
O=P(O)(O)C(O)(Cc1cccc(-c2cccc3c2oc2ccccc23)c1)P(=O)(O)O [BPH-629] | ~0.3 |  |  |  | 
Cc1cc(Cl)ccc1-c1ccc(/C=C2\SC(=S)N(CC(=O)O)C2=O)o1 [Compound 1] |  | 1 to 2 (≈ 2.54 to 5.08 µM) | high ng/mL to low μg/mL range | did not inhibit the growth of Gram negatives | inhibited the growth of Gram positives
O=C(O)CCN1C(=O)/C(=C/c2ccc(-c3ccc(Cl)cc3Cl)o2)SC1=S [Compound 4] |  |  | high ng/mL to low μg/mL range | did not inhibit the growth of Gram negatives | inhibited the growth of Gram positives
